Measured values: paper PMC6340882, “Targeting protein kinase CK2 and CDK4/6 pathways with a multi-kinase inhibitor ON108110 suppresses pro-survival signaling and growth in mantle cell lymphoma and T-acute lymphoblastic leukemia” (Oncotarget, 2018)

Key:
Type in all cases: biochemical
[1] = biological target: CDK5/P25 (Homo sapiens, UniProt Q00535); experiment: Kinase panel profiling (Reaction Biology Corp); conditions: CDK5/P25, kinase inhibition profile
Description: (§1) Initial testing of ON108110 against a panel of 285 functional kinases was performed by Reaction Biology Corp (Malvern, PA). Recombinant CDK4/CYCLIN D1 or CK2α1 were mixed with their respective synthetic peptide substrates (10ng) and incubated with DMSO or increasing concentrations of ON108110 in 20μl kinase buffer [50mM Tris-HCl (pH 7.5), 10mM MgCl2, 1mM EGTA, 2mM DTT and 0.01% NP-40] for 30 min. at room temperature. Kinase reactions were carried out for 20 min at 30°C in the presence of 5μl of substrate-ATP mixture (1μg RB, 20μM ATP, 20μCi γ-^32P-ATP). The reactions were incubated at 30°C for 20 minutes, terminated by addition of 0.5M O-phosphoric acid and 10μl of the reaction mixture was spotted on P-30 Filtermat membranes (Wallac #1450-523). The filtermat was air-dried, blocked with methanol for 2 minutes followed by three washes with 75mM phosphoric acid. The filtermat was then air-dried and analyzed using a phosphoimager. Densitometric values were plotted as a function of log drug concentration using Prism 4 GraphPad software and the IC50 values determined by plotting sigmoidal non-linear regression curves with variable slope (n=3).

[2] = biological target: CK2α1 (Homo sapiens, UniProt P68400); experiment: Kinase panel profiling (Reaction Biology Corp); conditions: CK2α1, kinase inhibition profile
Description: as §1

[3] = biological target: CDK4/CyclinD3 (Homo sapiens, UniProt P11802); experiment: Kinase panel profiling (Reaction Biology Corp); conditions: CDK4/CyclinD3, kinase inhibition profile
Description: as §1

[4] = biological target: CK2α2 (Homo sapiens, UniProt P19784); experiment: Kinase panel profiling (Reaction Biology Corp); conditions: CK2α2, kinase inhibition profile
Description: as §1

[5] = biological target: CDK6 (Homo sapiens, UniProt Q00534); experiment: In vitro kinase assay with recombinant protein (32P-ATP, filtermat); conditions: recombinant CDK6, independent in vitro kinase assay, 20μM ATP
Description: Figure 1 ON108110 is a multi-kinase inhibitor (A) Structure of the ON108XXO benzo thiazolidinnes chemotype. (B) Structure of ON108110. (C) Calculation of IC50 values against CDK4 and CDK6 and (D) CK2α1 and CK2α2 by ON108110. Recombinant proteins were incubated with the indicated concentrations of ON108110 and subjected to in vitro kinase assays as described in the materials and methods section. Values obtained were plotted as a function of log drug concentration. IC50 values were determined by performing sigmoidal non-linear regression with a variable slope.
as §1, with “The reactions were incubated at 30°C for 20 minutes, terminated by addition of 0.5M O-phosphoric acid and 10μl of the reaction mixture was spotted on P-30 Filtermat membranes (Wallac #1450-523). The filtermat was air-dried, blocked with methanol for 2 minutes followed by three washes with 75mM phosphoric acid.” left out

Chain of CDK6 (Q00534 whole entry): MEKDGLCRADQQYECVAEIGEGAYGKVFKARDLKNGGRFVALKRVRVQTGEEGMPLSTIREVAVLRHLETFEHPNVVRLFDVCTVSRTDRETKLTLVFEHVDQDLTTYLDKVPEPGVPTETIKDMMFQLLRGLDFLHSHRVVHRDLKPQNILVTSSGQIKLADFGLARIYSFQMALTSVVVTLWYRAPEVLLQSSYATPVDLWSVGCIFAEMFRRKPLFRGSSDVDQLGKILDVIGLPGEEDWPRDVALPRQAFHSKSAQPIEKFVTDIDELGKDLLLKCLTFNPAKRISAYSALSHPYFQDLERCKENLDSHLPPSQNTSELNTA
Chain of CDK6 (P24385 whole entry partner): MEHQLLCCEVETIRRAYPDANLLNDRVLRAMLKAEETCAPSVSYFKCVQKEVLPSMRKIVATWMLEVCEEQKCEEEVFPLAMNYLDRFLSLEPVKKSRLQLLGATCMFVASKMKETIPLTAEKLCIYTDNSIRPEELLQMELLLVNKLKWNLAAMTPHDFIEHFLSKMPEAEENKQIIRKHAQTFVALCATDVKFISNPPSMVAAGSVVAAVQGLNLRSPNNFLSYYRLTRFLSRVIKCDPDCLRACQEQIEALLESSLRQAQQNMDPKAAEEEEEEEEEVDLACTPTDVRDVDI
Chain of CK2α2 (P19784 whole entry): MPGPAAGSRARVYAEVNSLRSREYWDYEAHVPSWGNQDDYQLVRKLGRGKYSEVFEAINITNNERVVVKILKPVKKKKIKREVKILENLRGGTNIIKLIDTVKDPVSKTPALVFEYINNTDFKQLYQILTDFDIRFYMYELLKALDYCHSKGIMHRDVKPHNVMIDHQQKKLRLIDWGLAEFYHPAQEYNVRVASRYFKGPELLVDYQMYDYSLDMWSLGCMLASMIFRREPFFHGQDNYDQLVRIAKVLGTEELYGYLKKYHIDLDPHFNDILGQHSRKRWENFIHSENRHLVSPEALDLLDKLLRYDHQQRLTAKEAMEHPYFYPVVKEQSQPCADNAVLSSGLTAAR
Chain of CK2α1 (P68400 whole entry): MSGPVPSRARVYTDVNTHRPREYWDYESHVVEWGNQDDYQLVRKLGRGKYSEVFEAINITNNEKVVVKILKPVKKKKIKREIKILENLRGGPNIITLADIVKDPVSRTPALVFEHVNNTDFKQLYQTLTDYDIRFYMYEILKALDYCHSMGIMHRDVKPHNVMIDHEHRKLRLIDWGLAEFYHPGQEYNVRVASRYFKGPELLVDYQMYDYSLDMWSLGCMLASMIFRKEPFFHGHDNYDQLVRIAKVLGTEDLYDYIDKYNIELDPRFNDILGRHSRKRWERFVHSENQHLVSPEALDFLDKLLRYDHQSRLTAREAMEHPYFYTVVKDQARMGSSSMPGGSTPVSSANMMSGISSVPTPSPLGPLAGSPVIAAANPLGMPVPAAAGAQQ
Chain of CDK5/P25 (Q00535 whole entry): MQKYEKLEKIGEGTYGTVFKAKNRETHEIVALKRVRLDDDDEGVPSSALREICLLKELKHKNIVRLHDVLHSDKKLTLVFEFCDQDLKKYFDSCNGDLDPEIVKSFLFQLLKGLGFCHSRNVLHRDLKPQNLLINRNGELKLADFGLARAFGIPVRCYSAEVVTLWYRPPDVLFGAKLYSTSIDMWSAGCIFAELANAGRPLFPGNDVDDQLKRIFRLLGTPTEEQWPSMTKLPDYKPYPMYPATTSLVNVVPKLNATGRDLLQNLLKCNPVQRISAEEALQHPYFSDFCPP
Chain of CDK5/P25 (Q15078 99-307 partner limits assumed): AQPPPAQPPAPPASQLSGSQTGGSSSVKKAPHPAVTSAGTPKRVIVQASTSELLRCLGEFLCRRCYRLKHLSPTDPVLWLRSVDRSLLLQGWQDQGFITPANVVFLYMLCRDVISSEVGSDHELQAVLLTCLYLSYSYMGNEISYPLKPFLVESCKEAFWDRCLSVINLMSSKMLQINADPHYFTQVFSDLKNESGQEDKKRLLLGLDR
Chain of CDK4/CyclinD3 (P11802 whole entry): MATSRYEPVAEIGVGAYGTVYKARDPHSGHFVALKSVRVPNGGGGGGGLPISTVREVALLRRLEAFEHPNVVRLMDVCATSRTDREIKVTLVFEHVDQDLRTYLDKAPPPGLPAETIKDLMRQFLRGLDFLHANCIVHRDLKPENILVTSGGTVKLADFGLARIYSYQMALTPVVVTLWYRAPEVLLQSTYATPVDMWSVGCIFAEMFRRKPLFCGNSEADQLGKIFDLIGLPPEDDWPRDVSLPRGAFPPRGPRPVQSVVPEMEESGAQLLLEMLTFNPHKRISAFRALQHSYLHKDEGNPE
Chain of CDK4/CyclinD3 (P30281 whole entry partner): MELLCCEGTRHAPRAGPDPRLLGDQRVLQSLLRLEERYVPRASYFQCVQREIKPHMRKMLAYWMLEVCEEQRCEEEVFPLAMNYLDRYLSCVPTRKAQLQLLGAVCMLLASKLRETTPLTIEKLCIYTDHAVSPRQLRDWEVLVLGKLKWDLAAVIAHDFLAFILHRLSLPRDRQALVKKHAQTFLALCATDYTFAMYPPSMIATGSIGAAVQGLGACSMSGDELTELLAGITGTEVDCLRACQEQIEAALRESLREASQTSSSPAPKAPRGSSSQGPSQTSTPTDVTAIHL

`CC(=O)Oc1ccc(/C=C2\Sc3ccc(F)cc3NC2=O)cc1[N+](=O)[O-]` [ON108110] was tested, and the IC50 [1] was 7 nM, the IC50 [2] was 3 nM and the IC50 [3] was 15 nM. It also gave an IC50 [4] of 2 nM and an IC50 [5] of 10 nM.
